Patent US5413993A, “Method for the treatment of narcotic withdrawal symptoms in animals using lipopolysaccharides” (priority 1992, dated 1995)

Legend:
[1] = in vivo; cited from earlier work
[2] = Convulsions on intravenous clonidine (inventors' finding); assay type: in vivo; conditions: 10 mg/kg
[3] = system: jumping, a severer withdrawal symptom; conditions: intravenous, 0.1-0.10 mg/kg
[4] = system: withdrawal body shake; conditions: intraperitoneal, 0.16 mg/kg; cited from earlier work
[5] = in vivo; cited from earlier work; remark: listed apart in the source

C[C@]12N[C@H](Cc3ccccc31)c1ccccc12 [Dizocilipine, dizocilpine]
difference between toxic and effective doses [1]: extremely small difference between its toxic and effective doses

Clc1cccc(Cl)c1N=C1NCCN1 [Clonidine, clonidine]
convulsions [2]: causes convulsions
suppression of jumping [3]: fails to suppress jumping
suppression of withdrawal body shake [4]: suppress withdrawal body shake

CCC(=O)C(CC(C)N(C)C)(c1ccccc1)c1ccccc1 (centres unmarked) [Methadone]
dependence to itself [5]: cause dependence to itself
